In assay [1] the target is Carbonic anhydrase 1 (Homo sapiens, UniProt P00915).
The target in assay [2] is Carbonic anhydrase 2 (Homo sapiens, UniProt P00918).
Assay [3] concerns the target Carbonic anhydrase 9 (Homo sapiens, UniProt Q16790).

Sequence of Carbonic anhydrase 1 (P00915 whole entry): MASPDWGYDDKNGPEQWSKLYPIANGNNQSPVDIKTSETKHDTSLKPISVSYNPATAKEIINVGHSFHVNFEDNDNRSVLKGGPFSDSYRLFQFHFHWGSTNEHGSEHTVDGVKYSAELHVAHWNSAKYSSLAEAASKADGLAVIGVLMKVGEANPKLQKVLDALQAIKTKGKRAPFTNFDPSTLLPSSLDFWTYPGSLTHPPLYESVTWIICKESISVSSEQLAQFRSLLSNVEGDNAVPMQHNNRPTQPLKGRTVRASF

For orientation: Ki means a measure of affinity in units of concentration, obtained from inhibition or displacement. Low values mean a stronger hold on the target, high ones a looser hold on the target. Consider `CC1(C)OB(c2ccc(C(=O)Nc3ccc(S(N)(=O)=O)cc3)cc2)OC1(C)C`, for which the Ki worked out at 70 nM in assay [1], 5.2 nM in assay [2] and 53 nM in assay [3].

On to `CC1(C)OB(c2ccc(N/C(S)=N/c3ccc(S(N)(=O)=O)cc3F)cc2)OC1(C)C`, for which the values for the inhibitory constant (Ki) in assay [1], in assay [2] and in assay [3] were 77 nM, 5.1 nM and 10.1 nM, respectively.

As to `CC1(C)OB(c2ccc(NC(=S)Nc3ccc(S(=O)(=O)Nc4nnc(S(N)(=O)=O)s4)cc3)cc2)OC1(C)C`, the Ki amounted to 34 nM in assay [1], 5.1 nM in assay [2] and 7.3 nM in assay [3].

For the molecule `CC1(C)OB(c2ccc(OS(N)(=O)=O)cc2)OC1(C)C`, the figures for the Ki in assay [1], in assay [2] and in assay [3] were 94 nM, 32 nM and 80 nM, respectively.

For `CC1(C)OB(c2ccc(C(=O)NCCc3ccc(S(N)(=O)=O)cc3)cc2)OC1(C)C`, the Ki stood at 70 nM in assay [1], 5.1 nM in assay [2] and 42 nM in assay [3].

For the molecule `CC1(C)OB(c2ccc(N/C(S)=N/c3ccc(S(=O)(=O)Nc4ccc(S(N)(=O)=O)cc4)cc3)cc2)OC1(C)C`, the inhibition constant (Ki) turned out to be 49 nM in assay [1], 6.3 nM in assay [2] and 84 nM in assay [3].

With `CC1(C)OB(c2ccc(NC(=S)Nc3ccc(S(N)(=O)=O)cc3Br)cc2)OC1(C)C`, the values for the Ki in assay [1], in assay [2] and in assay [3] were 72 nM, 5.1 nM and 89 nM, respectively.

Take `CC1(C)OB(c2ccc(NC(=S)Nc3cccc(S(N)(=O)=O)c3)cc2)OC1(C)C`: the Ki in assay [1] was 70 nM; in assay [2], 5.5 nM; in assay [3], 81 nM.

Take `CC1(C)OB(c2ccc(C(=O)NCc3ccc(S(N)(=O)=O)cc3)cc2)OC1(C)C`: the Ki in assay [1] was 69 nM; in assay [2], 5.4 nM.

Regarding `CC1(C)OB(c2ccc(NS(N)(=O)=O)cc2)OC1(C)C`, the inhibition constant Ki in assay [1] turned out to be 92 nM; in assay [3], 81 nM.

As to `CC1(C)OB(c2ccc(NC(=S)Nc3ccc(S(N)(=O)=O)cc3)cc2)OC1(C)C`, the results for the Ki in assay [1], in assay [2] and in assay [3] were 69 nM, 5.1 nM and 80 nM, respectively.

As to `CC1(C)OB(c2ccc(C(=O)Nc3nnc(S(N)(=O)=O)s3)cc2)OC1(C)C`, the inhibitory constant (Ki) in assay [1] worked out at 36 nM; in assay [2], 3.1 nM; in assay [3] it was 7.6 nM.

Take `CC1(C)OB(c2ccc(NC(=S)Nc3ccc(S(N)(=O)=O)cc3I)cc2)OC1(C)C`: the inhibition constant (Ki) stood at 91 nM in assay [1], 9.8 nM in assay [2] and 9.3 nM in assay [3].

For `CC1(C)OB(c2ccc(N/C(S)=N/c3ccc(S(N)(=O)=O)cc3Cl)cc2)OC1(C)C`, the inhibition constant Ki in assay [1] came to 70.5 nM; in assay [2], 5 nM; in assay [3] it was 81 nM.

The record behind these values is ChEMBL document CHEMBL1140244, “Carbonic anhydrase inhibitors. Synthesis and inhibition of cytosolic/tumor-associated carbonic anhydrase isozymes I, II, and IX with boron-containing sulfonamides, sulfamides, and sulfamates: toward agents for boron neutron capture therapy of hypoxic tumors” (Bioorg Med Chem Lett, 2005).
